Laboratory results as given in US10028931B2, “Synergistic compositions for treating microbial infections” (UNIVERSITY OF ROCHESTER, priority 2014, dated 2018).
Converted amounts (≈) assume the structure as drawn. Read-outs that look alike come from different tables or passages of the source.

Legend:
[1] = tested on: Staphylococcus aureus strain UAMS-1; experiment: Antimicrobial susceptibility testing (MIC, broth microdilution); assay type: cell-based; details: S. aureus UAMS-1, Mueller Hinton broth, 37° C.
Description: The RNase P inhibitors described herein were tested for antimicrobial activity toward Staphylococcus aureus strain UAMS-1. Individual wells of a 96-well microtiter plate were inoculated with ˜1×10^5 colony-forming units (CFU) of the indicated organism, containing two-fold increasing concentrations (from 0 to 256 μg mL^−1) of the indicated antibiotic or putative RnpA inhibitor, and incubated at 37° C. for 18 hours in Mueller Hinton broth. The MIC was defined as the lowest concentration of antibiotic in which there was no visible bacterial growth in the wells. Minimum bactericidal concentration testing was performed by enumerating the bacterial cells in each of the wells containing treatments at and above the MIC.

RnpA = target: T1, RnpA (Staphylococcus aureus, UniProt P0A0H5); experiment: RnpA mRNA degradation activity assay; assay type: biochemical
T1 sequence (P0A0H5 1-117): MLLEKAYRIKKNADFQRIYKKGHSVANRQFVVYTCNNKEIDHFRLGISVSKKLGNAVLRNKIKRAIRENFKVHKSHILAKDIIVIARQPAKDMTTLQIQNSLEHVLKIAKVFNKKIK
Description: The RNase P inhibitors described herein were tested for activity toward RnpA mRNA degradation activity. Either 1 μg of total S. aureus RNA or 1 pmol of in vitro synthesized spa mRNA was incubated with 20 pmol RnpA at 37° C. for 15 to 30 min in a reaction buffer (50 mM Tris-HCl pH 8.0, 2 mM NaCl, 2 mM MgCl2) in the absence or presence of the indicated compound. Reactions were stopped by adding an equal volume of 2×RNA loading dye (95% formamide, 0.025% SDS, 0.025% bromophenol blue, 0.025% xylene cyanol FF, 0.5 mM EDTA), run on a denaturing 1.0% agarose-0.66 M formaldehyde gel and stained with ethidium bromide. RNA substrates and corresponding degradation products were visualized using a FluorChem 5500 system (Alpha Innotech; San Leandro, Calif.). The inhibitory effects of the test compounds were measured using Image J densitometry software (National Institutes of Health; Bethesda, Md.) to quantify the signal intensity of the RNA band(s) in the negative control (RNA alone), positive control (RnpA+RNA+DMSO), and experimental samples (RnpA+RNA+test compound). The percent enzyme inhibition of test compounds was calculated using the following equation: Percent inhibition=[(experimental signal-positive control)/(negative control signal-positive control signal)]*100.

[2] = target: T2, S. aureus RNase P (RnpA+rnpB) (Staphylococcus aureus, UniProt P0A0H5); experiment: RNase P activity assay (precursor tRNA processing); assay type: biochemical; details: ptRNATyr processing, gel densitometry; read-out: RNase P IC50
T2 sequence (P0A0H5 1-117): T1 sequence (P0A0H5 1-117)
Description: The RNase P inhibitors described herein were tested for activity toward RNase P. S. aureus RNase P activity assays were performed in low salt buffer (50 mM Tris-HCl pH 8.0, 5 mM MgCl2) or in high salt buffer (50 mM Tris-HCl pH 8.0, 100 mM MgCl2, 800 mM NH4Cl). For all reactions, ptRNATyr, tRNATyr, or rnpB RNA species were first denatured by heating to 95° C. for 3 minutes, and then slowly cooling the mixtures to room temperature. RNase P was reconstituted by mixing an equal molar ratio of RnpB and RnpA for 15 min at 37° C. Precursor tRNA processing reactions (20 μL) were performed by mixing 1.25 pmol RNase P (RnpA+rnpB), RnpA, or rnpB with an equal volume of 2× low salt buffer or 2× high salt buffer and 10 pmol ptRNATyr. Mixtures were incubated for 15 min at 37° C. Reactions were stopped by adding 20 μL 2×RNA loading dye (95% formamide, 0.025% SDS, 0.025% bromophenol blue, 0.025% xylene cyanol FF, 0.5 mM EDTA), and 30 μL of each sample was electrophoresed in a 7 M urea/8% polyacrylamide gel and was then stained with ethidium bromide (0.5 μg/ml). Where indicated, reactions were repeated in the presence of the indicated amount of putative RnpA inhibitors or dimethyl sulfoxide (DMSO). A FluorChem 5500 imaging system was used to visualize the RNA, and the relative abundance of the mature tRNATyr band in the positive control (RNase P+DMSO) or in samples containing test compounds was measured using Image J densitometry software (NIH). The percent RNase P activity was then calculated using the following calculation: (test compound tRNATyr signal/positive control tRNATyr signal)*100.

[3] = Staphylococcus aureus, UAMS1, 18 h, read-out: MIC
[4] = RnpA mRNA degradation, gel densitometry, read-out: RnpA IC50

Row | Compound | MIC [1, 3] [µg/mL] | IC50 (RnpA; [4]) [µM] | IC50 [2] [µM] | IC50 (RnpA) [µM] | MIC ([1]; 18 hours) [µg/mL]
1 | CC(C)c1ccc(OCC(=O)NNC(=O)c2ccco2)cc1 [MC-190034] | > 256 | > 500 | > 500 | – | –
2 | CC(C)c1ccc(OCC(=O)NNC(=O)c2cccs2)cc1 [MC-190035] | > 256 | > 500 | > 500 | – | –
3 | CC(C)c1ccc(OCC(=O)NNC(=O)c2ccsc2)cc1 [MC-190036] | > 256 | > 500 | > 500 | – | –
4 | CC(C)c1ccc(OCC(=O)NNC(=O)Cc2ccco2)cc1 [MC-190038] | > 256 | > 500 | > 500 | – | –
5 | CC(C)c1ccc(OCC(=O)NNC(=S)NC(=O)c2cnco2)cc1 [MC-190039] | 64 (≈ 177 µM) | – | – | > 500 | –
6 | Cc1ccc(C(=O)NNC(=O)COc2ccc(C(C)C)cc2)o1 [MC-190041] | > 256 | 470 | 385 | – | –
7 | Cc1ccoc1C(=O)NC(=S)NNC(=O)COc1ccc(C(C)C)cc1 [MC-190043] | 32 (≈ 85.2 µM) | 20 | 150 | – | –
8 | CC(C)c1ccc(OCC(=O)NNC(=S)NC(=O)c2ccncc2)cc1 [MC-190050] | 128 (≈ 344 µM) | – | 150 | > 500 | –
9 | CC(C)c1ccc(OCC(=O)NNC(=O)c2cc3ccccc3[nH]2)cc1 [MC-190051] | 128 (≈ 364 µM) | 45 | 2 | – | –
10 | CC(C)c1ccc(OCC(=O)NNC(=O)c2cc3ccccc3n2C)cc1 [MC-190057] | > 256 | > 500 | 70 | – | –
11 | COc1ccc2cc(C(=O)NNC(=O)COc3ccc(C(C)C)cc3)[nH]c2c1 [MC-190059] | > 256 | 150 | 80 | – | –
12 | O=C(NC(=S)NNC(=O)c1ccccc1O)c1ccco1 [MC-190069] | – | > 500 | 470 | – | 64 (≈ 210 µM)
13 | COc1ccc(OCC(=O)NNC(=S)NC(=O)c2ccco2)cc1 [MC-190070] | 64 (≈ 183 µM) | > 500 | > 500 | – | –
14 | O=C(CCc1ccccc1)NNC(=S)NC(=O)c1ccco1 [MC-190080] | > 128 | – | – | – | –
15 | CC(C)c1ccc(OCC(=O)NNC(=S)NC(=O)c2cnc3ccccc3c2)cc1 [MC-190082] | > 128 | – | – | – | –
16 | CC(C)c1ccc(CCNc2c(NCc3ccco3)c(=O)c2=O)cc1 [MC-190083] | > 128 | – | – | – | –
17 | CC(C)c1ccc(OCC(=O)NNC(=S)NC(=O)Cc2ccco2)cc1 [MC-190084] | 16 (≈ 42.6 µM) | – | – | – | –
18 | Cc1ccc(CNc2c(NCCc3ccc(C(C)C)cc3)c(=O)c2=O)o1 [MC-190085] | > 128 | – | – | – | –
19 | CC(C)c1ccc(CCNc2c(NCc3ccccn3)c(=O)c2=O)cc1 [MC-190086] | > 128 | – | – | – | –
20 | CC(C)c1ccc(CCNc2c(NCc3nc4ccccc4[nH]3)c(=O)c2=O)cc1 [MC-190087] | > 128 | – | – | – | –
21 | CC(C)c1ccc(CCNc2c(NCc3cc4ccccc4o3)c(=O)c2=O)cc1 [MC-190088] | > 128 | – | – | – | –

Row | Compound | MIC [1, 3] [µg/mL] | IC50 (RnpA; [4]) [µM] | IC50 [2] [µM] | IC50 (RnpA) [µM] | MIC ([1]; 18 hours) [µg/mL]
22 | CC(C)c1ccc(CCNc2c(NCCc3ccco3)c(=O)c2=O)cc1 [MC-190090] | 256 (≈ 726 µM) | 50 | – | – | –
23 | CC(C)c1ccc(CNc2c(NCc3ccco3)c(=O)c2=O)cc1 [MC-190091] | 128 (≈ 395 µM) | 25 | – | – | –
24 | CC(C)c1ccc(CNc2c(NCCc3ccco3)c(=O)c2=O)cc1 [MC-190092] | 256 (≈ 756 µM) | 250 | 250 | – | –
25 | CC(C)c1ccc(OCC(=O)NNC(=S)NC(=O)c2ccoc2)cc1 [MC-190098] | 16 (≈ 44.3 µM) | – | 150 | – | –
26 | O=C(NNC(=S)NC(=O)c1ccco1)c1ccncc1 [ST4145527] | > 128 | > 500 | > 500 | – | –
27 | COc1ccc(C(=O)NNC(=S)NC(=O)c2ccco2)cc1 [ST5254069] | 16 (≈ 50.1 µM) | > 500 | > 500 | – | –
28 | O=C(NNC(=S)NC(=O)c1ccco1)c1cccnc1 [ST5254078] | 128 (≈ 441 µM) | > 500 | > 500 | – | –
29 | O=C(/C=C/c1ccccc1)NC(=S)NNC(=O)c1ccco1 [ST5254083] | 16 (≈ 50.7 µM) | 90 | 75 | – | –
30 | O=C(NC(=S)NNC(=O)c1ccco1)c1cccnc1 [ST5254088] | > 128 | – | > 500 | – | –
31 | COc1ccc(C(=O)NC(=S)NNC(=O)c2ccco2)cc1 [ST5254089] | 64 (≈ 200 µM) | > 500 | 180 | – | –
32 | Cc1ccc(OCC(=O)NNC(=S)NC(=O)COc2ccccc2)cc1 [ST5521633] | 16 (≈ 42.8 µM) | – | 155 | – | –
33 | Cc1ccccc1C(=O)NNC(=S)NC(=O)COc1ccccc1 [ST5521953] | 32 (≈ 93.2 µM) | > 500 | > 500 | – | –
34 | COc1ccc(OCC(=O)NNC(=S)NC(=O)c2ccc(Br)o2)cc1 [ST5523216] | 32 (≈ 74.7 µM) | > 500 | 425 | – | –
35 | Cc1cc(Cl)ccc1OCC(=O)NNC(=S)NC(=O)/C=C/c1ccco1 [ST5524187] | 32 (≈ 81.2 µM) | 175 | 65 | – | –
36 | O=C(NNC(=S)NC(=O)c1ccco1)c1ccc(NC(=O)c2ccccc2)cc1 [ST5524510] | > 128 | – | > 500 | – | –
37 | Cc1ccccc1OCC(=O)NNC(=S)NC(=O)/C=C/c1ccco1 [ST5524973] | 32 (≈ 89 µM) | 220 | 80 | – | –
38 | CC(C)(C)c1ccc(C(=O)Nc2ccc(C(=O)NNC(=S)NC(=O)c3ccco3)cc2)cc1 [ST5524997] | 32 (≈ 68.9 µM) | 300 | 70 | – | –
39 | CCC(C)c1ccc(OCC(=O)NNC(=S)NC(=O)C2CCCCC2)cc1 (stereo not shown) [ST5525281] | – | 275 | 125 | – | –
40 | CCC(C)c1ccc(OCC(=O)NNC(=S)NC(=O)c2ccc(-c3ccccc3)cc2)cc1 (stereo not shown) [ST5525289] | 64 (≈ 139 µM) | 40 | > 500 | – | –
41 | COCCOC(=O)CCC(=O)NC(=S)NNC(=O)COc1ccc(C(C)C)cc1 [ST5528839] | > 128 | – | > 500 | – | –
42 | O=C(Cc1ccccc1)NNC(=S)NC(=O)c1ccco1 [ST5682126] | > 128 | – | > 500 | – | –
